Data on 39 molecules can be found in ChEMBL document CHEMBL3352018 (J Med Chem, 2014).

Activity calls are given as the source filed them. No cut-off for these calls is given here.

The target of the first experiment is Histamine H1 receptor (Homo sapiens, UniProt P35367). Kind of experiment: Displacement of [3H]mepyramine from human histamine H1 receptor expressed in Sf9 cells by scintillation counting method. The experiment is classed as cell-based. In general terms: Loss of bound radioactivity is the signal in a displacement assay; it reports binding, not function.
Histamine H1 receptor, sequence (P35367 whole entry): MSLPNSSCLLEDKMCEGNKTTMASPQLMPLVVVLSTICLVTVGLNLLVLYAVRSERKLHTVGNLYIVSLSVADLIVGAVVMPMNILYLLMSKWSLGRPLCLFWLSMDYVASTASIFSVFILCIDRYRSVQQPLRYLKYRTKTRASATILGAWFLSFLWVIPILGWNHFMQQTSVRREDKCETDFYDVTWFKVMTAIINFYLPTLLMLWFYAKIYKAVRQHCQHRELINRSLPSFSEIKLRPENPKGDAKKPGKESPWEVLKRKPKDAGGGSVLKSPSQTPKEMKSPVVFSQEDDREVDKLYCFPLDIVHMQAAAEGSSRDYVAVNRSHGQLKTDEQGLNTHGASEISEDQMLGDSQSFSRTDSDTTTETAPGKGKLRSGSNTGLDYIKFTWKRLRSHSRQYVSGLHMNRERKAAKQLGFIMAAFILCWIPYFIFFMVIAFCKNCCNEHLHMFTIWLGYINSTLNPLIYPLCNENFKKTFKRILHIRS
The molecule `CCCCC(=O)N1CCC(=C2c3ccc(Cl)cc3CCc3cccnc32)CC1` returned a Ki of 0.147 µM.

As for `CC(C)C[C@@H](N)C(=O)N1CCC(=C2c3ccc(Cl)cc3CCc3cccnc32)CC1`, the Ki came to 4.65 µM. On the same count and under the same terms, as for `CCOC(=O)N1CCC(=C2c3ccc(Cl)cc3CCc3ccc(C(=O)OC)nc32)CC1`, the figure is greater than 10 µM; as for `CC(C)CC(=O)N1CCC(=C2c3ccc(Cl)cc3CCc3cccnc32)CC1`, 0.289 µM. As to `CCOC(=O)N1CCC(=C2c3ccc(Cl)cc3CCc3cc(OC)cnc32)CC1`, affinity was put at a Ki of 1.95 µM. Turning to `C/C=C/C(=O)N1CCC(=C2c3ccc(Cl)cc3CCc3cccnc32)CC1`, the inhibitory constant (Ki) turned out to be 0.153 µM.

`CC(C)COC(=O)N1CCC(=C2c3ccc(Cl)cc3CCc3cccnc32)CC1` showed a Ki of 1.27 µM. Take `O=C(CC1CCCCC1)N1CCC(=C2c3ccc(Cl)cc3CCc3cccnc32)CC1`: the Ki was 0.441 µM. On the same count and under the same terms, for `CCCC(=O)N1CCC(=C2c3ccc(Cl)cc3CCc3cccnc32)CC1` the value was 0.171 µM.

The next experiment has as its target T1, Sodium-dependent neutral amino acid transporter B(0)AT2 (Homo sapiens) (UniProt Q9H2J7).
T1 sequence (whole entry): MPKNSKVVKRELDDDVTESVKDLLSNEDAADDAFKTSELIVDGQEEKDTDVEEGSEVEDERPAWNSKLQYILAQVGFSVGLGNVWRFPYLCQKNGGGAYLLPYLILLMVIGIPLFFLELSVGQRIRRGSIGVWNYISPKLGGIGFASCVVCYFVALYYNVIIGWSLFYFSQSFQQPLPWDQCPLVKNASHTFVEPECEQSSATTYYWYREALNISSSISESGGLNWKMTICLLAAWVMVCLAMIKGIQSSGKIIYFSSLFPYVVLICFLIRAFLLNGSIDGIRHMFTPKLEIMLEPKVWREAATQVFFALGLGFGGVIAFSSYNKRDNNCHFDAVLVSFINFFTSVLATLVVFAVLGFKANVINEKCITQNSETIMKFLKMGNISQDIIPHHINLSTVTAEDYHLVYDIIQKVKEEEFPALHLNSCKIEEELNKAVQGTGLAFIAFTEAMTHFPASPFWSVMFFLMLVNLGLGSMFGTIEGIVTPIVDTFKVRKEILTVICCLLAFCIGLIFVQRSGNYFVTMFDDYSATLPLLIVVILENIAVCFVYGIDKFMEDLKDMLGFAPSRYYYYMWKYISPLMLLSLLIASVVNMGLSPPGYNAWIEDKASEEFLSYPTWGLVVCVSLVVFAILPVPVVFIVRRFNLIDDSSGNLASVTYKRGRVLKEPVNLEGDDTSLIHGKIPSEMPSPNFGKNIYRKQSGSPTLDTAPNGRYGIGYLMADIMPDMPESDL
Kind of experiment: Inhibition of eGFP-tagged human B0AT2 expressed in HEK293 cells assessed as reduction in proline-induced inward current at 100 uM by patch clamp assay. The experiment is classed as cell-based. On the technique in general: The patch-clamp technique gives a direct electrical read-out from membranes.
As to `CCOC(=O)N1CCC(=C2c3ccc(Cl)cc3CCc3cccnc32)CC1` [LORATADINE], the inhibition entry is “Active”.

The next experiment addresses T1, Sodium-dependent neutral amino acid transporter B(0)AT2 (Homo sapiens). The experiment is described as follows: Reversible inhibition of eGFP-tagged human B0AT2 expressed in HEK293 cells assessed as reduction in proline-induced inward current at 100 uM measured post drug wash out by patch clamp assay. The experiment is classed as cell-based.
On to `CCOC(=O)N1CCC(=C2c3ccc(Cl)cc3CCc3cccnc32)CC1` [LORATADINE], for which the inhibition entry was “Active”.

For the next experiment the target is unchanged. Kind of experiment: Inhibition of eGFP-tagged human B0AT2 expressed in HEK293 cells at 5 mM measured within 10 mins by [3H]proline uptake assay. The experiment is classed as cell-based.
`NC1(C(=O)O)CC2CCC1C2` (stereo unspecified) gave an inhibition of 80%.

In another experiment the target is T2, Sodium-dependent neutral amino acid transporter B(0)AT2 (Homo sapiens, UniProt Q9H2J7).
T2 sequence (Q9H2J7 whole entry): T1 sequence (whole entry)
Kind of experiment: Inhibition of eGFP-tagged human B0AT2 expressed in HEK293 cells measured within 10 mins by [3H]proline uptake assay. The experiment is classed as cell-based.
`CCOC(=O)N1CCC(=C2c3ccc(Cl)cc3CCc3cccnc32)CC1` [LORATADINE] returned an IC50 of 4 µM. Same read-out and setting: as for `CCCS(=O)(=O)N1CCC(=C2c3ccc(Cl)cc3CCc3cccnc32)CC1`, the figure is greater than 80 µM; as for `CCOC(=O)N1CCC(=C2c3ccc(Cl)cc3CCc3ccc(C#N)nc32)CC1`, greater than 80 µM. `C=CCOC(=O)N1CCC(=C2c3ccc(Cl)cc3CCc3cccnc32)CC1` came in with an IC50 of 4.9 µM. As to `NCCC(=O)N1CCC(=C2c3ccc(Cl)cc3CCc3cccnc32)CC1`, half-maximal inhibition (IC50) required 18.7 µM. For `CC(C)(C)OC(=O)N1CCC(=C2c3ccc(Cl)cc3CCc3cccnc32)CC1`, the IC50 was greater than 80 µM.

Turning to `COCC(=O)N1CCC(=C2c3ccc(Cl)cc3CCc3cccnc32)CC1`, half-maximal inhibition (IC50) required 26.4 µM. Regarding `Clc1ccc2c(c1)CCc1cccnc1C2=C1CCNCC1` [DESLORATADINE], the IC50 is 172 µM.

`O=C(Oc1ccccc1)N1CCC(=C2c3ccc(Cl)cc3CCc3cccnc32)CC1`: the IC50 is greater than 80 µM. In turn, `CCOC(=O)N1CCC(=C2c3ccc(Cl)cc3CCc3ccc(CO)nc32)CC1` had an IC50 greater than 80 µM. Same read-out and setting: for `CC(C)C(=O)N1CCC(=C2c3ccc(Cl)cc3CCc3cccnc32)CC1` the value was 41.5 µM; for `CCOC(=O)N1CC=C(C2c3ccc(Cl)cc3CCc3cccnc32)CC1` (stereo unspecified), 14.8 µM. The same measure, in the same setting: as for `CCC(=O)N1CCC(=C2c3ccc(Cl)cc3CCc3cccnc32)CC1`, the figure is 36 µM; as for `CCOC(=O)N1CCC(=C2c3ccc(Cl)cc3CCc3c(C#N)ccnc32)CC1`, greater than 80 µM; as for `CCSC(=O)N1CCC(=C2c3ccc(Cl)cc3CCc3cccnc32)CC1`, 5.3 µM. The same measure, in the same setting: for `Cc1cncc(CN2CCC(=C3c4ccc(Cl)cc4CCc4cccnc43)CC2)c1` [RUPATADINE] the value was greater than 40 µM; for `CN1CCC(=C2c3ccc(Cl)cc3CCc3cccnc32)CC1`, greater than 80 µM; for `CCCCC(=O)N1CCC(=C2c3ccc(Cl)cc3CCc3cccnc32)CC1`, 3.4 µM. `CC(C)C[C@@H](N)C(=O)N1CCC(=C2c3ccc(Cl)cc3CCc3cccnc32)CC1`: inhibition was half-maximal at 7.7 µM (IC50). Compared with the last molecule, the IC50 is about 2.3-fold higher. In turn, `O=C(Cc1ccccc1)N1CCC(=C2c3ccc(Cl)cc3CCc3cccnc32)CC1` came in with an IC50 of 16.1 µM. Same read-out and setting: for `CCCOC(=O)N1CCC(=C2c3ccc(Cl)cc3CCc3cccnc32)CC1` the value was 4.6 µM; for `CC(C)OC(=O)N1CCC(=C2c3ccc(Cl)cc3CCc3cccnc32)CC1`, 16.8 µM; for `CC(C)[C@@H](N)C(=O)N1CCC(=C2c3ccc(Cl)cc3CCc3cccnc32)CC1`, 39.1 µM.

`CCOC(=O)N1CCC(=C2c3ccc(Cl)cc3CCc3ccc(C(=O)OC)nc32)CC1`: the IC50 was 12.4 µM. The same measure, in the same setting: for `CC(C)CC(=O)N1CCC(=C2c3ccc(Cl)cc3CCc3cccnc32)CC1` the value was 10.8 µM; for `CCNC(=O)N1CCC(=C2c3ccc(Cl)cc3CCc3cccnc32)CC1`, 35 µM. For the molecule `CCOC(=O)N1CCC(=C2c3ccc(Cl)cc3CCc3cc(OC)cnc32)CC1`, the half-maximal inhibitory concentration (IC50) came out at 4.5 µM. Against the preceding molecule, the IC50 is about 7.8-fold lower. As to `C/C=C/C(=O)N1CCC(=C2c3ccc(Cl)cc3CCc3cccnc32)CC1`, the IC50 was 5 µM.

`NCC(=O)N1CCC(=C2c3ccc(Cl)cc3CCc3cccnc32)CC1`: half-maximal inhibition (IC50) required 22.9 µM.

For the molecule `CCOC(=O)N1CCC(=C2c3ccc(Cl)cc3CCc3c(CO)ccnc32)CC1`, the IC50 amounted to 18.3 µM. On the same count and under the same terms, for `CCOC(=O)N1CCC(=C2c3ccc(Cl)cc3CCc3cc(O)cnc32)CC1` the value was 17.6 µM; for `CC(C)COC(=O)N1CCC(=C2c3ccc(Cl)cc3CCc3cccnc32)CC1`, 7.8 µM.

`O=C(OCc1ccccc1)N1CCC(=C2c3ccc(Cl)cc3CCc3cccnc32)CC1` registered an IC50 greater than 80 µM.

In the case of `O=C(CC1CCCCC1)N1CCC(=C2c3ccc(Cl)cc3CCc3cccnc32)CC1`, half-maximal inhibition (IC50) was put at 5.7 µM.

As for `CCCC(=O)N1CCC(=C2c3ccc(Cl)cc3CCc3cccnc32)CC1`, the IC50 was 4.9 µM. The IC50 values of the last two molecules are within 1.5-fold of each other.

For `CC(=O)N1CCC(=C2c3ccc(Cl)cc3CCc3cccnc32)CC1` [SCH-37370], 54.8 µM corresponded to half-maximal inhibition (IC50). The same measure, in the same setting: as for `CCCCCC(=O)N1CCC(=C2c3ccc(Cl)cc3CCc3cccnc32)CC1`, the figure is 5.2 µM. In the case of `COC(=O)N1CCC(=C2c3ccc(Cl)cc3CCc3cccnc32)CC1`, the IC50 stood at 19.6 µM.

For another experiment, the target named is T1, Sodium-dependent neutral amino acid transporter B(0)AT2 (Homo sapiens). Kind of experiment: Activation of eGFP-tagged human B0AT2 expressed in HEK293 cells assessed as induction of inward current at 100 uM by patch clamp assay. The experiment is classed as cell-based.
Take `CCOC(=O)N1CCC(=C2c3ccc(Cl)cc3CCc3cccnc32)CC1` [LORATADINE]: the outcome was inactive.

As a reminder, the Ki is the equilibrium dissociation constant of an inhibitor or competing ligand from its target. Low readings indicate tighter binding, high ones weaker binding. One may read the inhibition as the change of the read-out against control, counted positive when it falls. The term IC50 denotes the concentration needed to halve the response being measured. Read a low IC50 as higher potency.
